Here are results for four compounds from patent publication US12043602B2, “Fendiline derivatives” (The Board of Regents of the University of Texas System, priority 2019, dated 2024).

Test [1] has as its system MiaPaCa-2 (Mut) pancreatic tumor cells. Kind of test: CyQUANT proliferation assay. The class given is cell-based. To be noted: Homo sapiens. Here is the method:
(§1) Madine Darby Canine Kidney epithelial cells (MDCK) stably co-expressing mGFP-tagged full length oncogenic mutant K-Ras (GFP—K-RASG12V) or mGFP-LactC2 (peptide probe for phosphatidylserine) and mCherry-tagged to the amino acids 179-189 of H-RasC181S, C184S (mCherry-CAAX, localizes primarily to endomembranes) were grown in DMEM-high glucose/sodium pyruvate/10% FBS. The medium was supplemented with 1× Penicillin/Streptomycin for fluorescence microscopy assays, to avoid any microbial contamination from the test compounds added. KLE and Hec50 cells were maintained in DMEM-F-12 medium supplemented with 10% FBS. Hec-1A and Hec-1B cells were grown in McCoy's 5a medium supplemented with 10% FBS. ESS-1 cells were grown in RPMI 1640 medium supplemented with 20% FBS. MPanc96 cells were grown in DMEM supplemented with 10% FBS, MiaPaCa-2 cells in DMEM supplemented with 10% FBS and 2.5% horse serum and all other cell lines were grown in RPMI 1640 supplemented with 10% FBS. All cancer cell media were supplemented with ×Penicillin/Streptomycin. All cell lines were grown at 37° C. with 5% CO2.
(§2) Cells were seeded in 96-well plates. After 24 h, fresh growth medium supplemented with 0.1% vehicle (DMSO), or various concentrations of drugs was added and cells were grown for 72 h. Cell numbers were quantified using the CyQUANT® Cell Proliferation Assay Kit (Molecular Probes, Life Technologies), according to the manufacturer's protocol. Fluorescence measurement was used as a measure of live cell number.

The subject of test [2] is CaCO-2 (WT) colon tumor cells. Nature of the test: CyQUANT proliferation assay. The class given is cell-based. The following applies: Homo sapiens. As for the experimental part: as §1, §2
In test [3] the test system is NCI-H1299 (WT) lung tumor cells. Kind of test: CyQUANT proliferation assay. The following applies: Homo sapiens. The class given is cell-based. As for the experimental part:
as §1, §2

Test [4] has as its system Hec1A (Mut) endometrial tumor cells. Nature of the test: CyQUANT proliferation assay. The following applies: Homo sapiens, HEC-1-A. The class given is cell-based. Here is the method: as §1, §2
The test system of test [5] is SK-CO-1 (Mut) colon tumor cells. Nature of the test: CyQUANT proliferation assay. The class given is cell-based. To be noted: Homo sapiens. Here is the method:
as §1, §2

The subject of test [6] is Hec1B (Mut) endometrial tumor cells. Nature of the test: CyQUANT proliferation assay. The class given is cell-based. The following applies: Homo sapiens, HEC-1B. As for the experimental part:
as §1, §2

Another test has as its system pERK. Nature of the test: Immunohistochemistry of tumor sections, pERK. Also noted: species or system nu/nu mice. To be noted: mouse, in vivo. Here is the method: Immunohistochemistry. 4-5 μm sections were deparaffinized, rehydrated, and treated with 10 mM sodium citrate for heat induced antigen retrieval. After quenching endogenous peroxidase, and blocking with 2.5% normal goat serum (Vector Laboratories S-1012), sections were incubated overnight at 4° C. with primary antibody diluted in blocking solution as recommended by manufacturer (Cell Signaling). Controls were incubated with diluted normal rabbit IgG. After incubation with biotinylated secondary antibody diluted 1:250 in blocking serum for 45 min at rt, sections were incubated with VECTASTAIN ABC reagent for 30 min, and for development of the DAB chromogen the Quanto substrate was used. Slides were counter stained with Hematoxylin. Five fields per stained section per xenograft were photographed at 10X. CC3+ and pERK+ area and number of events per field were quantitated via automated image analysis (NIS Elements BR analysis ver. 4.13.04). Vessel number and lumen area per field used the same software with manual settings to trace vessel wall contours. Antibodies used are as follows: CC3: Cell Signaling #9661, use at 1:300. (Cleaved Caspase-3 (Asp175) Antibody. Rabbit polyclonal. pERK: Cell Signaling #4370: Phospho-p44/42 MAPK (Erk1/2) (Thr202/Tyr204) (D13.14.4E) XP Rabbit mAB. CD31 (PECAM-1) (D8V9E) XP Rabbit mAB (Cell signal # (Cell signal #77699). Normal rabbit IgG: Santa Cruz #sc-3888. Concentration is 50 μg/mL or 50 ng/μL. Prepared with 5 μg in 200 μL blocking solution. Goat Anti-Rabbit IgG Biotin Conjugate: Calbiochem #OS03B, Concentration=1.2 mg/mL. Recommended to be used for IHC at 1 μg/mL.

The test system of test [7] is NCI H522 (WT) lung tumor cells. Nature of the test: CyQUANT proliferation assay. The class given is cell-based. The following applies: Homo sapiens. Here is the method:
as §1, §2

Test [8] concerns sphingomyelin (SM) in MiaPaCa-2 tumor sections. Kind of test: Lysenin (GFP-Lys) staining of tumor sections. The class given is in vivo, nu/nu mice. To be noted: 12.5 mg/kg. As for the experimental part: Lysenin Staining of Tumor Sections. To label intracellular SM, 3 μm thick cryosections, fixed in 4% paraformaldehyde and quenched in 0.1 M NH4Cl, were permeabilized with 0.5% saponin before overnight incubation (4° C.) with MBP-GFP Lysenin (50 μg/mL) in PBS with 0.5% saponin containing DAPI (5 ng/mL). Samples mounted in FluorSave were photographed in the Nikon AIR Confocal Laser Microscope. GFP-Lysenin binding was quantitated using NIS
Elements BR analysis ver. 4.13.04. The average value obtained in the negative control pictures (background) was subtracted from each of the GFP pictures (n=20).
To determine if the reduction in tumor growth elicited by the compounds were mediated by inhibition of ASM, we stained the tissue sections for SM using a non-toxic recombinant fragment of lysenin tagged with GFP (GFP-Lys). In DMSO-treated tumor sections, weak GFP-Lys staining was observed. […] We also observed that the blood vessels were dilated in compound 6 treated tumors, whereas the blood vessel diameters were not changed in compound 12h (NY0331) and 22 (NY0335) treated tumors (FIG. 8E).

Test [9] relates to NCI H1975 (WT) lung tumor cells. Nature of the test: CyQUANT proliferation assay. The class given is cell-based. Further details: key to IC50 proliferation NCI H1975 (WT): NE—Not efficacious. The following applies: for IC50 proliferation NCI H1975 (WT): 72 h; for IC50: Homo sapiens, NCI-H1975, Table 11, lung. Here is the method:
as §1, §2

The mark [10] stands for this setting: MIA PaCa-2, 72 h, read-out: IC50 proliferation MiaPaCa-2 (Mut).
[11] abbreviates: MIA PaCa-2, Table 11, pancreatic, read-out: IC50 (μM) MiaPaCa-2 (Mut).
[12] abbreviates: Caco-2, 72 h, read-out: IC50 proliferation CaCO-2 (WT).
The mark [13] stands for this setting: Caco-2, Table 11, colon, read-out: IC50 (μM) Caco-2 (WT).
Where [14] appears, read: NCI-H1299, 72 h, read-out: IC50 proliferation NCI-H1299 (WT; N Mut in Table 6).
The mark [15] stands for this setting: NCI-H1299, Table 11, lung, read-out: IC50 (μM) NCI H1299 (WT).
Where [16] appears, read: 72 h, read-out: IC50 proliferation Hec1A (Mut).
Where [17] appears, read: Table 11, endometrial, read-out: IC50 (μM) Hec1A (Mut).
Where [18] appears, read: SK-CO-1, 72 h, read-out: IC50 proliferation SK-CO-1 (Mut).
[19] abbreviates: SK-CO-1, Table 11, colon, read-out: IC50 (μM) SK-CO-1 (Mut).
Where [20] appears, read: 72 h, read-out: IC50 proliferation Hec1B (Mut).
Setting [21] is: Table 11, endometrial, read-out: IC50 (μM) Hec1B (Mut).
[22] abbreviates: NCI-H522, 72 h, read-out: IC50 proliferation NCI H522 (WT).
[23] abbreviates: NCI-H522, Table 11, lung, read-out: IC50 (μM) NCI H522 (WT).

Where two headings read alike, the source gives them in different places.

For `CC(NCCC(c1ccccc1)c1ccccc1)c1ccccc1` (centres unmarked) [Fendiline], the IC50 came out at 9.17 µM in test [1] (setting [10]); 9.2 ± 0.6 µM in [1] (setting [11]); 15.4 µM in test [2] (setting [12]); 14.5 µM in test [2] (setting [13]); 24.2 µM in [3] (setting [14]); 24.3 ± 2.1 µM in [3] (setting [15]). Also, the IC50 in test [4] (setting [16]) was found to be 9.48 µM; in [4] (setting [17]), 9.48 µM; in [5] (setting [18]), 7.77 µM; in test [5] (setting [19]) it was 7.8 µM; in test [6] (setting [20]), 9.8 µM; in [6] (setting [21]) it was 9.8 µM. For the same compound, the values for the IC50 in [7] (setting [22]), in test [7] (setting [23]) and in test [9] were 29.6 µM, 29.6 ± 1.2 µM and greater than 30 µM, respectively. In addition, the “pERK levels in tumors” value with pERK is “no significant effect”. Moreover, in test [8], the “GFP-Lys staining (SM) of tumor sections” value is “significantly increased”. The “IC50 proliferation NCI H1975 (WT)” value in test [9] is given as “NE”.

With `COc1ccc([C@@H](C)N(CC=C(c2ccccc2)c2ccccc2)CCN2CCN(C)CC2)cc1` [NY0244, (R)-N-(1-(4-methoxyphenyl)ethyl)-N-(2-(4-methylpiperazin-1-yl)ethyl)-3,3-diphenylprop-2-en-1-amine], the IC50 amounted to 3.03 µM in test [1] (setting [10]); 3 µM in test [1] (setting [11]); 5.1 µM in test [2] (setting [12]); 5.1 µM in [2] (setting [13]); 8.24 µM in test [3] (setting [14]); 8.2 µM in [3] (setting [15]). Moreover, the IC50 in [4] (setting [16]) was 2.6 µM; in test [4] (setting [17]) it was 2.6 µM; in [5] (setting [18]), 3.28 µM; in test [5] (setting [19]), 3.3 µM; in test [6] (setting [20]), 3.28 µM; in test [6] (setting [21]) it was 3.3 µM. Besides, the IC50 in [7] (setting [22]) is 28.2 µM; in test [7] (setting [23]) it was 28.2 µM; in test [9], greater than 30 µM. The “IC50 proliferation NCI H1975 (WT)” value in test [9] is “NE”.

As for `COc1ccc([C@@H](C)N(CC=C(c2ccccc2)c2ccccc2)CCN2CCCC2)cc1` [NY0331, (R)-N-(1-(4-methoxyphenyl)ethyl)-3,3-diphenyl-N-(2-(pyrrolidin-1-yl)ethyl)prop-2-en-1-amine], the IC50 was 3.36 µM in [1] (setting [10]) and 3.1 µM in test [1] (setting [11]). For the same compound, the “pERK levels in tumors” value with pERK was “reduced”. For the same compound, the “GFP-Lys staining (SM) of tumor sections” value in [8] is “significantly increased”.

On to `COc1ccc([C@@H](C)N(CC=C(c2ccccc2)c2ccccc2)CCCN2CCN(C)CC2)cc1` [NY0335, (R)-N-(1-(4-methoxyphenyl)ethyl)-N-(3-(4-methylpiperazin-1-yl)propyl)-3,3-diphenylprop-2-en-1-amine], for which the IC50 was 2.79 µM in [1] (setting [10]); 2.8 µM in test [1] (setting [11]); 4.43 µM in test [2] (setting [12]); 4.4 µM in [2] (setting [13]); 8.12 µM in test [3] (setting [14]); 8.2 ± 1 µM in [3] (setting [15]). For the same compound, the IC50 in test [4] (setting [16]) turned out to be 2.34 µM; in [4] (setting [17]), 2.3 µM; in test [5] (setting [18]), 3.52 µM; in [5] (setting [19]) it was 3.5 µM; in test [6] (setting [20]) it was 3.89 µM; in [6] (setting [21]), 3.9 µM. Moreover, the results for the IC50 in [7] (setting [22]), in [7] (setting [23]) and in test [9] were 23.5 µM, 23.5 ± 3.2 µM and greater than 30 µM, respectively. Further, the “pERK levels in tumors” value in the test on pERK is recorded as “reduced”. In addition, in test [8], the “GFP-Lys staining (SM) of tumor sections” value was “did not enhance GFP-Lys staining”. Besides, the “IC50 proliferation NCI H1975 (WT)” value in test [9] is recorded as “NE”.
